According to patent US20250090510A1, “eIF4G1-eIF1 INHIBITORS AND USE THEREOF” (YEDA RESEARCH AND DEVELOPMENT CO. LTD., priority 2022, published 2025):

Test system: HEK293T cells
Experiment: TCP-seq (translation complex profiling) of 48S footprints
Format: cell-based, human
Settings: 5 μM, one hour
Excerpt: FIGS. 9A-H: Inhibition of eIF1-eIF4G1 leads to 48S instability and scanning defect (9A) Polysome profiles of HEK293T cells treated with DMSO or i14G1-12 after crosslinking with formaldehyde, lysis and Rnase I digestion. The grey layer represents the fractions corresponding to the 40S ribosome used for the TCP-seq library preparation. (9B) Heatmap representing the log 2 mean of the relative number of reads mapping to the individual tRNAs in i14G1-12 over DMSO (n=3). The number of reads was normalized to the codon frequency in the human transcriptome. (9C) Volcano plot showing log 2 fold change (FC) of the abundance of each tRNAs comparing i14G1-12 over DMSO with FDR <0.05 and a log 2 FC threshold of 1. (9D) Histograms showing the relative number of reads mapping to mRNA in DMSO vs. i14G1-12. (9E) Metagene plots of normalized ribosome footprints (RPFs) counts on leader region. Numbers indicate the slope of the regression lines. (9F) Volcano plot showing log 2 fold change of the differential initiation analysis in i14G1-12 over DMSO. […] (9G) Bar chart of the relative number of reads mapping to each mRNA feature in DMSO and i14G-12.
FIGS. 10A-J: Definition of leaky scanning and its regulation by specific mRNA features and eIF1-eIF4G1. (10A) Metagene plots of normalized ribosome footprints (RPFs) counts on CDS region. (10B) Scatter plot representing the leaky scanning score (LS) of transcripts in i14G1-12 versus DMSO. Transcripts with a significant LS (FDR <0.05) in DMSO and i14G1-12 are highlighted. […] (10D) Boxplots of the leaky scanning score in DMSO and in i14G1-12. […] (10F) Plot of the mean GC content in a 20 nt window around the start codon of leaky and non-leaky transcripts in DMSO and i14G1-12. (10G) Boxplot representing the log 5′ UTR length of leaky and non-leaky transcripts in DMSO and i14G1-12.
HEK293T cells were grown to 90% confluence at 37° C. in a humidified incubator supplemented with 5% CO2. Cells were treated with DMSO or 5 μM i14G1-12 for 1 hour. After treatment, cells were directly removed from the incubator and treated with 0.15% formaldehyde for 10 min on ice with slow shaking. The reaction was stopped by adding 37.5 mM glycine for 5 minutes. Media was aspirated and the plates were washed with cold PBS. Cells were lysed with fresh lysis buffer (100 mM KCl, 20 mM Tris-HCl pH 8, 1.5 mM MgCl2, 1.5% (v/v) NP-40, 2 mM DTT) supplemented with protease inhibitor for 20 min in a cold room with slow agitation. Lysates were clarified by centrifugation at 20,000 g. RNA amount was quantified by nanodrop. 10% of the lysate was kept and snap freeze for total RNA extraction. Digestion was performed by the addition of 0.0075 U Rnase I per μg of RNA to the lysate for 30 min at room temperature. Digestion was stopped by adding a Super RNase inhibitor (ThermoFischer). Lysates were loaded onto a 5-45% sucrose gradient (100 mM KCl, 20 mM HEPES pH 7, 5 mM MgCl2, 2 mM DTT) and centrifuged at 39000 rpm for two hours and forty-five minutes in an SW41 rotor at 4° C. Gradients were analyzed through a UV lamp (254 nm) and an Absorbance detector while being fractionated in 250 μL fractions using a Foxy Junior Fraction Collector (Isco).
RNA from the undigested extract and the sucrose gradient fractions corresponding to the 40S were extracted by addition of 1 mL or one volume of TRIzol respectively. Samples were heated at 65° C. for 15 minutes and vortexed every five minutes. Extraction was continued by addition of chloroform and alcohol precipitation of the aqueous phase. RNA-seq libraries were prepared with the TruSeq stranded RNA Library Prep (Illumina). TCP-seq libraries were prepared as described herein by selecting footprints reads with a length ranging from 16 nt to 85 nt. Libraries were sequenced at the iGE3 Genomic Platform (UNIGE) on a Hiseq 4000. […]

SMILES: Cn1ccnc1S/C(=C/C=C(C#N)C#N)c1ccc(Cl)cc1 [i14G1-12]
- iMet tRNA abundance in 48S fractions (relative to DMSO): most downregulated tRNA
- number of reads mapping to mRNAs (relative to DMSO): significantly decreased
- number of leaky genes (LS >3) (DMSO n=637): 1266 genes
- number of non-leaky genes (LS<−3) (DMSO n=1223): 325 genes
- number of downregulated differentially scanned genes (log 2 FC threshold 1, FDR 0.05): 476 genes
- number of upregulated differentially scanned genes (log 2 FC threshold 1, FDR 0.05): 10 genes
